Laboratory results as given in US7053107B2, “Indazole compounds and pharmaceutical compositions for inhibiting protein kinases, and methods for their use” (Agouron Pharmaceuticals, Inc., priority 2002, dated 2006).

Legend:
[1] = target: T1, FGF-R1 (Homo sapiens, UniProt P11362, C488A/C584S/L457V); experiment: Fibroblast Growth Factor (FGF-R) spectrophotometric assay; format: biochemical; settings: 1 μM compound; read-out: FGF-P % inhibit @1 μM
T1 construct: starting from the endogenous methionine residue 456 to glutamate 766; made in house; host or cells: baculovirus vector expression system
Text: The intracellular kinase domain of human FGF-R1 was expressed using the baculovirus vector expression system starting from the endogenous methionine residue 456 to glutamate 766, according to the residue numbering system of Mohammadi et al., Mol. Cell. Biol., 16, 977–989 (1996). In addition, the construct also has the following 3 amino acid substitutions: L457V, C488A, and C584S.
(§1) The production of ADP from ATP that accompanies phosphoryl transfer was coupled to oxidation of NADH using phosphoenolpyruvate (PEP) and a system having pyruvate kinase (PK) and lactic dehydrogenase (LDH). The oxidation of NADH was monitored by following the decrease of absorbance at 340 nm (e340=6.22 cm^−1 mM^−1) using a Beckman DU 650 spectrophotometer. Assay conditions for phosphorylated VEGF-R2A50 (indicated as FLVK-P in the tables below) were the following: 1 mM PEP; 250 μM NADH; 50 units of LDH/mL; 20 units of PK/mL; 5 mM DTT; 5.1 mM poly(E4Y1); 1 mM ATP; and 25 mM MgCl2 in 200 mM HEPES, pH 7.5. Assay conditions for unphosphorylated VEGF-R2Δ50 (indicated as FLVK in the tables) were the following: 1 mM PEP; 250 μM NADH; 50 units of LDH/mL; 20 units of PK/mL; 5 mM DTT; […]; 3 mM ATP; and 60 mM MgCl2 and 2 mM MnCl2 in 200 mM HEPES, pH 7.5. Assays were initiated with 5 to 40 nM of enzyme. Ki values were determined by measuring enzyme activity in the presence of varying concentrations of test compounds. The data were analyzed using Enzyme Kinetic and Kaleidagraph software.
The spectrophotometric assay was carried out as described above for VEGF-R2, except for the following changes in concentration: FGF-R=50 nM, ATP=2 mM, and poly(E4Y1)=15 mM.

[2] = target: T2, unphosphorylated VEGF-R2Δ50 (Homo sapiens, UniProt P35968, DEL940-989/E990V); experiment: VEGF-R2 coupled spectrophotometric assay, unphosphorylated construct (FLVK); format: biochemical; settings: for inhibition at 0.05 µM: % inhibition at 50 nM compound, read-out: FLVK Ki % inh @ 50 nM
T2 construct: VEGF-R2Δ50 contains residues 806–939 and 990–1171; made in house; host or cells: baculovirus/insect cell system
Text: This construct determines the ability of a test compound to inhibit tyrosine kinase activity. A construct (VEGF-R2Δ50) of the cytosolic domain of human vascular endothelial growth factor receptor 2 (VEGF-R2) lacking the 50 central residues of the 68 residues of the kinase insert domain was expressed in a baculovirus/insect cell system. Of the 1356 residues of full-length VEGF-R2, VEGF-R2Δ50 contains residues 806–939 and 990–1171, and also one point mutation (E99OV) within the kinase insert domain relative to wild-type VEGF-R2. Autophosphorylation of the purified construct was performed by incubation of the enzyme at a concentration of 4 μM in the presence of 3 mM ATP and 40 mM MgCl2 in 100 mM HEPES, pH 7.5, containing 5% glycerol and 5 mM DTT, at 4° C. for 2 h. […] See Parast et al., Biochemistry, 37,16788–16801 (1998).
as §1

[3] = target: T3, LCK (Homo sapiens, UniProt P06239, C224D/P223M); experiment: Lymphocyte-Specific Protein-Tyrosine Kinase (LCK) spectrophotometric assay; format: biochemical; settings: 1 μM compound; read-out: LckP* % inhibit @1 μM
T3 construct: starting from amino acid residue 223 to the end of the protein at residue 509; made in house; host or cells: insect cells

[4] = tested on: human umbilical vein endothelial cells (HUVEC); experiment: HUVEC Proliferation Assay (VEGF-stimulated); format: cell-based
Description: This assay determines the ability of a test compound to inhibit the growth factor-stimulated proliferation of human umbilical vein endothelial cells (“HUVEC”). HUVEC cells (passage 3–4, Clonetics, Corp.) were thawed into EGM2 culture medium (Clonetics Corp) in T75 flasks. Fresh EGM2 medium was added to the flasks 24 hours later. Four or five days later, cells were exposed to another culture medium (F12K medium supplemented with 10% fetal bovine serum (FBS), 60 μg/mL endothelial cell growth supplement (ECGS), and 0.1 mg/mL heparin). Exponentially-growing HUVEC cells were used in experiments thereafter. Ten to twelve thousand HUVEC cells were plated in 96-well dishes in 100 μl of rich, culture medium (described above). The cells were allowed to attach for 24 hours in this medium. The medium was then removed by aspiration and 105 μl of starvation media (F12K+1% FBS) was added to each well. After 24 hours, 15 μl of test agent dissolved in 1% DMSO in starvation medium or this vehicle alone was added into each treatment well; the final DMSO concentration was 0.1%. One hour later, 30 μl of VEGF (30 ng/mL) in starvation media was added to all wells except those containing untreated controls; the final VEGF concentration was 6 ng/mL. Cellular proliferation was quantified 72 hours later by MTT dye reduction, at which time cells were exposed for 4 hours MTT (Promega Corp.). Dye reduction was stopped by addition of a stop solution (Promega Corp.) and absorbance at 595λ was determined on a 96-well spectrophotometer plate reader.
IC50 values were calculated by curve-fitting the response of A^595 to various concentrations of the test agent; typically, seven concentrations separated by 0.5 log were employed, with triplicate wells at each concentration. For screening compound library plates, one or two concentrations (one well per concentration) were employed, and the % inhibition was calculated by the following formula: % inhibition=(control−test)[…](control−starvation) where
control=A^595 when VEGF is present without test agent
test=A^595 when VEGF is present with test agent
starvation=A^595 when VEGF and test agent are both absent.

[5] = Human Liver Microsome (HLM) Assay; format: in vitro ADME
Description: Compound metabolism in human liver microsomes was measured by LC-MS analytical assay procedures as follows. First, human liver microsomes (HLM) were thawed and diluted to 5 mg/mL with cold 100 mM potassium phosphate (KPO4) buffer. Appropriate amounts of KPO4 buffer, NADPH-regenerating solution (containing B-NADP, glucose-6-phosphate, glucose-6-phosphate dehydrogenase, and MgCl2), and HLM were preincubated in 13×100 mm glass tubes at 37 C. for 10 min. (3 tubes per test compound—triplicate). Test compound (5 µM final) was added to each tube to initiate reaction and was mixed by gentle vortexing, followed by incubation at 37° C. […] Samples were centrifuged at 4000 rpm for 20 min. to precipitate proteins and salt (Beckman Allegra 6KR, S/N ALK98DO6, #634). Supernatant was transferred to new 12×75 mm glass tubes and evaporated by Speed-Vac centrifugal vacuum evaporator. Samples were reconstituted in 200 μL 0.1% formic acid/acetonitrile (90/10) and vortexed vigorously to dissolve. The samples were then transferred to separate polypropylene microcentrifuge tubes and centrifuged at 14000×g for 10 min. (Fisher Micro 14, S/N M0017580). […]
The combined compound samples were injected into the LC-MS system, composed of a Hewlett-Packard HP 1100 diode array HPLC and a Micromass Quattro II triple quadruple mass spectrometer operating in positive electrospray SIR mode (programmed to scan specifically for the molecular ion of each test compound. Each test compound peak was integrated at each timepoint. […]

[6] = target: T4, PDGFRβ (Homo sapiens, UniProt P09619); experiment: PAE-PDGFRβ Phosphorylation in PAE-PDGFRB Cells Assay; format: cell-based; settings: PAE cells overexpressing human PDGFRβ; read-out: PAE PDGFR autophos IC50
T4 construct: expressed in transfected cells; host or cells: porcine aorta endothelial (PAE) cells
Description: This assay determines the ability of a test compound to inhibit the autophosphorylation of PDGFRβ in porcine aorta endothelial (PAE)-PDGFRβ cells. PAE cells that overexpress human PDGFRβ were used in this assay. The cells were cultured in Ham's F12 media supplemented with 10% fetal bovine serum (FBS) and 400 ug/ml G418. Twenty thousands cells were seeded in each well of a 96-well plate in 50 μL of growth media and allowed to attach for 6 hours at 37° C. Cells were then exposed to the starvation media (Ham's F12 media supplemented with 0.1% FBS) for 16 hours. After the starvation period was over, 10 μL of test agent in 5% DMSO in starvation media were added to the test wells and 10 μL of the vehicle (5% DMSO in starvation media) were added into the control wells. The final DMSO concentration in each well was 0.5%. Plates were incubated at 37° C. for 1 hour and the cells were then stimulated with 1 μg/mL PDGF-BB (R & D System) in the presence of 2 mM Na3VO4 for 8 minutes. The cells were washed once with 1 mm Na3VO4 in HBSS and lysed by adding 50 μL per well of lysis buffer. One hundred μL of dilution buffer were then added to each well and the diluted cell lysate was transferred to a 96-well goat ant-rabbit coated plate (Pierce), which was pre-coated with Rabbit anti Human PDGFRβ antibody (Santa Cruz). The plates were incubated at room temperature for 2 hours and washed seven times with 1% Tween 20 in PBS. HRP-PY20 (Santa Cruz) was diluted and added to the plate for a 30-minute incubation. Plates were then washed again and TMB peroxidase substrate (Kirkegaard & Perry) was added for a 10-minute incubation. One hundred μL of 0.09 N H2SO4 was added into each well of the 96-well plate to stop the reaction. Phosphorylation status was assessed by spectrophotometer reading at 450 nm. IC50 values were calculated by curve fitting using a four-parameter analysis.

[7] = tested on: HUVEC; experiment: bFGF Huvec; format: cell-based; settings: Homo sapiens

T1 sequence (P11362 456-766 L457V/C488A/C584S): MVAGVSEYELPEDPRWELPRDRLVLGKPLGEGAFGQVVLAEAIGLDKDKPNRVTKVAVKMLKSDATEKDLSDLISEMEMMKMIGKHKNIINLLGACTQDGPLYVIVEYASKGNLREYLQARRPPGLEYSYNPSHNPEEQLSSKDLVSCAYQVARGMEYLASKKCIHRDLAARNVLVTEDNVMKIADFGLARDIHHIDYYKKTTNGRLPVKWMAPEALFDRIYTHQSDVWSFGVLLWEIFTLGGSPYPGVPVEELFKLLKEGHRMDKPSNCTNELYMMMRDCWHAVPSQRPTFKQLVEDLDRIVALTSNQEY
T3 sequence (P06239 223-509 P223M/C224D): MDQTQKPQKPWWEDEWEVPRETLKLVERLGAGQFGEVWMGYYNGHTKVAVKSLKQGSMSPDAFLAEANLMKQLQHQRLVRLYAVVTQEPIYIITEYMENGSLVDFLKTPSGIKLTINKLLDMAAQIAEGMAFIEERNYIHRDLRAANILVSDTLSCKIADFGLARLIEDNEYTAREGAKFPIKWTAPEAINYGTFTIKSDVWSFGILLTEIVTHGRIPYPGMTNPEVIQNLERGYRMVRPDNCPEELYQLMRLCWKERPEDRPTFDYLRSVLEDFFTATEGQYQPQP
T2 sequence (P35968 with tags, fused parts or gaps DEL940-989/E990V limits assumed): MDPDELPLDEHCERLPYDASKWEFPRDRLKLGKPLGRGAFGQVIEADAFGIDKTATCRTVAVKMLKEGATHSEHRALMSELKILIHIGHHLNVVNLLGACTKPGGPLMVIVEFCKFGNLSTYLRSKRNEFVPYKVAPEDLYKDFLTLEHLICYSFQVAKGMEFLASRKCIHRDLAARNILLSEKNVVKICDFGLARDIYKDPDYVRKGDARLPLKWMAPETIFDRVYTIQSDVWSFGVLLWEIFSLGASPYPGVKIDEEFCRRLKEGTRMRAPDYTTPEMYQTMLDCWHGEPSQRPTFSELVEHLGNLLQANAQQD
T4 sequence (P09619 33-1106): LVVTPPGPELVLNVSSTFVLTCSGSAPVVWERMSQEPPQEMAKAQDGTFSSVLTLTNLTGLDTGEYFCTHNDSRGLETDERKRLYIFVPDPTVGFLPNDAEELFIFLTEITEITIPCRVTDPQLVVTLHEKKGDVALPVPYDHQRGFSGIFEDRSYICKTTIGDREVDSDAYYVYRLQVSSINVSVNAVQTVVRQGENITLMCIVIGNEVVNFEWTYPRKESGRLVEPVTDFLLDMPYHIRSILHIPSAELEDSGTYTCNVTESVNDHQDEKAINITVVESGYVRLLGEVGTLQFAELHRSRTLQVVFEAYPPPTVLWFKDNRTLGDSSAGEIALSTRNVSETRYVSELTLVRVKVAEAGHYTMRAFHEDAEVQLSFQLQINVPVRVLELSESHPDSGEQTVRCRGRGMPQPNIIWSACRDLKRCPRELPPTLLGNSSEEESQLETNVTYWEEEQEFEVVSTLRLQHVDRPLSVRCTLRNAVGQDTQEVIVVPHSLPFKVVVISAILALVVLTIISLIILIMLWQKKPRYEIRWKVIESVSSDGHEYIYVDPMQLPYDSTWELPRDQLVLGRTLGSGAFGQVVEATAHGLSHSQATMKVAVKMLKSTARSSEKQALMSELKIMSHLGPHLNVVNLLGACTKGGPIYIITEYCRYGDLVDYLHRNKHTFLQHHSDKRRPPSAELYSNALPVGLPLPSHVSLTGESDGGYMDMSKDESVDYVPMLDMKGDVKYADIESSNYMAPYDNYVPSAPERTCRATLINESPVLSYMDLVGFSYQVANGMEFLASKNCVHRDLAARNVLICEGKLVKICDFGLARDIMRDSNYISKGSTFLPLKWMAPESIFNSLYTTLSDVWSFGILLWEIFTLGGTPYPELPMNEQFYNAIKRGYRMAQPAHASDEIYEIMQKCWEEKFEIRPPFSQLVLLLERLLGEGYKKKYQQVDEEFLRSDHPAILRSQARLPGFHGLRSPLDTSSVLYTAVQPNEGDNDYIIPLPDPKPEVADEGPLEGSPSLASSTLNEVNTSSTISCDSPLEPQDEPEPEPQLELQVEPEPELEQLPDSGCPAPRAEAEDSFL

Compound | inhibition at 1 µM [1] [%] | inhibition at 0.05 µM [2] [%] | inhibition at 1 µM [3] [%] | IC50 [4] [nM] | % remaining (HLM) ([5]; @2 h) | % remaining (HLM) ([5]; @0.5 h) | IC50 [6] [nM] | IC50 [7] [nM] | Ki ([2]; cell prints nM instead of % inhibition) [nM]
CONC(=O)c1ccccc1Nc1ccc2c(/C=C/c3ccccn3)n[nH]c2c1 [Example 3(a), N-Methoxy-2-[3-((E)-2-pyridin-2-yl-vinyl)-1H-indazol-6-ylamino]-benzamide] | 99 | 98 | 30 | 12.7 |  |  |  |  | 
C=CCONC(=O)c1ccccc1Nc1ccc2c(/C=C/c3ccccn3)n[nH]c2c1 [Example 3(b), N-Allyloxy-2-[3-((E)-2-pyridin-2-yl-vinyl)-1H-indazol-6-ylamino]-benzamide] | 96 | 98 | 27 | 5.7 | 84@2 h % |  |  |  | 
O=C(NCc1ccccc1)c1ccccc1Nc1ccc2c(/C=C/c3ccccn3)n[nH]c2c1 [Example 3(g), N-Benzyl-2-[3-((E)-2-pyridin-2-yl-vinyl)-1H-indazol6-ylamino]-benzamide] | 72 | 95 | 28 | 1.1 |  | 72@0.5 h % |  |  | 
O=C(NCc1ccco1)c1ccccc1Nc1ccc2c(/C=C/c3ccccn3)n[nH]c2c1 [Example 3(i), N-Furan-2-ylmethyl-2-[3-((E)-2-pyridin-2-yl-vinyl)-1H-indazol-6-ylamino]-benzamide] | 45 | 88 | 22 | 0.2 |  |  | 1.9 | 1000 | 
C=C(C)CNC(=O)c1ccccc1Nc1ccc2c(/C=C/c3cc(C)cc(C)n3)n[nH]c2c1 [Example 15, 2-{3-[2-(4,6-Dimethyl-pyridin-2-yl)-vinyl]-1H-indazol-6-ylamino}-N-(2-methyl-allyl)-benzamide] | 29 | 64 |  | 1.5 |  |  | 12.3 | 1610 | 
Cc1cc(C)nc(/C=C/c2n[nH]c3cc(Nc4ccccc4C(=O)NCC#CC4CC4)ccc23)c1 [Example 18, N-(3-Cycloprop-2-ynyl)-2-{3-[(E)-2-(4,6-dimethyl-pyridin-2-yl)-vinyl]-1H-indazol-6-ylamino}-benzamide] | 59 | 94 |  |  |  |  |  | 1880 | 
Cc1ccnc(/C=C/c2n[nH]c3cc(Nc4ccccc4C(=O)NCc4cc(C)nn4C)ccc23)c1 [Example 41, N-(2,5-Dimethyl-2H-pyrazol-3-ylmethyl)-2-{3-[(E)-2-(4-methyl-pyridin-2-yl)-vinyl]-1H-indazol-6-ylamino}-benzamide] | 11 | 45 |  | 6.4 |  |  |  | 3780 | 
Cc1cc(CNC(=O)c2ccccc2Nc2ccc3c(/C=N/n4cccc4)n[nH]c3c2)n(C)n1 [Example 61, N-(2,5-Dimethyl-2H-pyrazol-3-ylmethyl)-2-[3-(pyrrol-1-yliminomethyl)-1H-indazol-6-ylamino]-benzamide] | 14 | 65 |  | 6.5 |  |  |  | 662 | 
Cc1cc(CNC(=O)c2ccccc2Nc2ccc3c(/C=C/c4ccccn4)n[nH]c3c2)n(C)n1 [Example 65, N-(2,5-Dimethyl-2H-pyrazol-3-ylmethyl)-2-[3-(2-pyridin-2-yl-vinyl)-1H-indazol-6-ylamino]-benzamide] |  |  |  | 3.4 |  | 86@0.5 h % | 5.8 |  | 3.11
